Results as given in US8461305B2, “L-fucose α1→6 specific lectin” (J-Oil Mills, Inc., priority 2008, dated 2013).

Legend:
[1] = frontal affinity chromatography (FAC), association constant to PA sugar chains having α1→6 L-fucose; format: binding; settings: 25 degrees C.
Description: (§1) The following section will describe a method of calculating an association constant by frontal affinity chromatography (FAC). This method is based on the following principle. […] Then, the elution front end (front) is observed immediately. When there is an affinity with lectin, the elution of the sugar chain is delayed.
(§2) The preparation of a lectin column used in the apparatus is performed in the method as described below. 1. Purified lectin is dissolved in 0.1 to 0.2M of NaHCO3 buffer solution (pH 8.3 to 8.5). 2. The lectin is immobilized, via a lectin primary amino group, a carrier such as NHS activated sepharose. 3. Then, the lectin is blocked by Tris buffer solution including primary amine or ethanolamine for example. 4. Lectin-sepharose is suspended in 10 mM Tris buffer, including 0.8% of NaCl (pH 7.4, TBS). Then, lectin immobilized resin is filled in a miniature column (φ2 mm×10 mm, 31.4 μl). 5. The miniature column in which the lectin immobilized resin is filled is protected by a holder and the lectin column is connected to an FAC automatic analysis apparatus (FAC-1, SHIMADZU CORPORATION).
(§3) Then, the elution of the PA sugar chain from the column is detected by a fluorescence detector (excitation wavelength/fluorescence wavelength: 310 nm/380 nm).
(§4) Based on the detection data, by using the elution front end (Vo) of the sugar chain (PA rhamnose) not interacting with lectin as a reference, the delay (V−Vo) of the elution front end (V) of a sugar chain interacting with lectin is calculated as an interaction strength. Then, based on the following FAC criteria expressions, the association constant (Ka) between the sugar chain and lectin is calculated based on V−Vo and Bt. If the interaction strength (V−Vo value) and the association constant are higher, a higher affinity is caused between lectin and an L-fucose α1→6 sugar chain.
(§5) [In the formula, A means substance used for the elution, Ao means the initial concentration of the substance A, B means a immobilized ligand, V means the elution volume, Vo means the elution front end volume of the substance not interacting with the immobilized ligand B at all, Bt means an effective ligand amount, Kd means a dissociation constant (an inverse of the association constant)].
(§6) Pyridylaminated (PA) sugar chains shown in FIG. 1 and FIG. 2 were used to frontal affinity chromatography (FAC) analysis. PA sugars were purchased from TAKARA BIO INC., SEIKAGAKU BIOBUSINESS CORPORATION, and Masuda Chemical Industries co., LTD. PA sugar were also obtained by pyridylaminating, by GlycoTAG®(TAKARA BIO INC.), an unlabeled sugar chain or a sugar chain obtained by subjecting a sugar chain to enzyme digestion for example.
(§7) Lectin was dissolved in 0.2 M NaHCO3 buffer solution (pH 8.3) including 0.5 M NaCl and coupled to the NHS-activated sepharose (GE Healthcare Bioscience) by following the manufacturer's instructions. Then, lectin immobilized sepharose was suspended in 10 mM Tris buffer (pH 7.4, TBS) including […] and the resultant matter was filled in a miniature column (φ2 mm×10 mm, 31.4 μl).
(§8) Frontal affinity chromatography was performed using FAC automatic analysis apparatus (FAC-1, SHIMADZU CORPORATION). In particular, the above-prepared lectin column was inserted to a stainless steel holder and the holder was connected to FAC-1 apparatus. The flow rate and the column temperature were maintained at 0.125 ml/min and 25 degrees C., respectively. After the miniature column was equilibrated by the TBS, an excessive volume (0.5 ml to 4 ml) of a PA sugar chain (3.75 nM or 7.5 nM) was continuously inputted to the column using an automatic sampling apparatus.
(§9) The fluorescent strength of the eluate of the PA sugar (excitation wavelength of 310 nm and fluorescence wavelength of 380 nm) was monitored to measure the interaction strength [a difference of the front end eluate to the standard oligosaccharide (PA rhamnose): V−V0]. […]

[2] = frontal affinity chromatography (FAC), association constant to PA sugar chains having other L-fucose; format: binding; settings: for association constant Ka: 25 degrees C.
Description: as §1, §2, §3, §4, §5, §6, §7, §8, §9

[3] = Sugar chain No. 728 (as listed in Table 5/12)

| Molecule | association constant Ka ([1]; Sugar chain No. 015) | association constant Ka ([1]; Sugar chain No. 201) | association constant Ka ([1]; Sugar chain No. 202) | association constant Ka ([1]; Sugar chain No. 203) | association constant Ka ([1]; Sugar chain No. 401) | association constant Ka ([1]; Sugar chain No. 402) | association constant Ka ([1]; Sugar chain No. 403) | association constant Ka ([1]; Sugar chain No. 404) | association constant Ka ([1]; Sugar chain No. 405) | association constant Ka ([1]; Sugar chain No. 406) | association constant Ka ([1]; Sugar chain No. 410) | association constant Ka ([1]; Sugar chain No. 418) | association constant Ka ([1]; Sugar chain No. 602) | association constant Ka ([2]; Sugar chain No. 419) | association constant Ka ([2]; Sugar chain No. 420) | association constant Ka ([2]; Sugar chain No. 718) | association constant Ka ([2]; Sugar chain No. 719) | association constant Ka ([2]; Sugar chain No. 720) | association constant Ka ([2]; Sugar chain No. 721) | association constant Ka ([2]; Sugar chain No. 722) | other results |
| --- | --- | --- | --- | --- | --- | --- | --- | --- | --- | --- | --- | --- | --- | --- | --- | --- | --- | --- | --- | --- | --- |
| Naematoloma sublateritium lectin [NSL] | 36000 M⁻¹ | 38000 M⁻¹ | 39000 M⁻¹ | 30000 M⁻¹ | 51000 M⁻¹ | 36000 M⁻¹ | 52000 M⁻¹ | 43000 M⁻¹ | 50000 M⁻¹ | 23000 M⁻¹ | 31000 M⁻¹ | 35000 M⁻¹ | 19000 M⁻¹ | <1000 M⁻¹ | <1000 M⁻¹ | <1000 M⁻¹ | <1000 M⁻¹ | <1000 M⁻¹ | <1000 M⁻¹ | <1000 M⁻¹ | binding to non-L-fucose α1→6 sugar chain ([2]; FAC): not detected at all; association constant Ka ([2]; Sugar chain No. 723): <1000 M⁻¹; association constant Ka ([2]; Sugar chain No. 726): <1000 M⁻¹; association constant Ka ([2]; Sugar chain No. 727): <1000 M⁻¹; association constant Ka [2, 3]: <1000 M⁻¹; association constant Ka ([2]; Sugar chain No. 729): <1000 M⁻¹; association constant Ka ([2]; Sugar chain No. 730): <1000 M⁻¹; association constant Ka ([2]; Sugar chain No. 731): <1000 M⁻¹; association constant Ka ([2]; Sugar chain No. 739): <1000 M⁻¹; association constant Ka ([2]; Sugar chain No. 909): <1000 M⁻¹; association constant Ka ([2]; Sugar chain No. 910): <1000 M⁻¹; association constant Ka ([2]; Sugar chain No. 931): <1000 M⁻¹; association constant Ka ([2]; Sugar chain No. 932): <1000 M⁻¹; association constant Ka ([2]; Sugar chain No. 933): <1000 M⁻¹ |
| Aspergillus oryzae lectin [AOL, reference compound] | 130000 M⁻¹ | 120000 M⁻¹ | 120000 M⁻¹ | 130000 M⁻¹ | 140000 M⁻¹ | 160000 M⁻¹ | 130000 M⁻¹ | 150000 M⁻¹ | 130000 M⁻¹ | 110000 M⁻¹ | 100000 M⁻¹ | 63000 M⁻¹ | 140000 M⁻¹ | <1000 M⁻¹ | <1000 M⁻¹ | 170000 M⁻¹ | <1000 M⁻¹ | <1000 M⁻¹ | <1000 M⁻¹ | 56000 M⁻¹ | association constant Ka ([1]; Sugar chain No. 407): 110000 M⁻¹; association constant Ka ([1]; Sugar chain No. 413): 79000 M⁻¹; association constant Ka ([1]; Sugar chain No. 601): 140000 M⁻¹; association constant Ka ([2]; Sugar chain No. 723): <1000 M⁻¹; association constant Ka ([2]; Sugar chain No. 726): <1000 M⁻¹; association constant Ka ([2]; Sugar chain No. 727): 76000 M⁻¹; association constant Ka [2, 3]: 12000 M⁻¹; association constant Ka ([2]; Sugar chain No. 729): <1000 M⁻¹; association constant Ka ([2]; Sugar chain No. 730): <1000 M⁻¹; association constant Ka ([2]; Sugar chain No. 731): <1000 M⁻¹; association constant Ka ([2]; Sugar chain No. 739): <1000 M⁻¹; association constant Ka ([2]; Sugar chain No. 909): 44000 M⁻¹; association constant Ka ([2]; Sugar chain No. 910): 56000 M⁻¹; association constant Ka ([2]; Sugar chain No. 931): 99000 M⁻¹; association constant Ka ([2]; Sugar chain No. 932): <1000 M⁻¹; association constant Ka ([2]; Sugar chain No. 933): 31000 M⁻¹ |
| Aleuria aurantia lectin (protein) PTEFLYTSKIAAISWAATGGRQQRVYFQDLNGKIREAQRGGDNPWTGGSSQNVIGEAKLFSPLAAVTWKSAQGIQIRVYCVNKDNILSEFVYDGSKWITGQLGSVGVKVGSNSKLAALQWGGSESAPPNIRVYYQKSNGSGSSIHEYVWSGKWTAGASFGSTVPGTGIGATAIGPGRLRIYYQATDNKIREHCWDSNSWYVGGFSASASAGVSIAAISWGSTPNIRVYWQKGREELYEAAYGGSWNTPGQIKDASRPTPSLPDTFIAANSSGNIDISVFFQASGVSLQQWQWISGKGWSIGAVVPTGTPAGW | 91000 M⁻¹ | 51000 M⁻¹ | 54000 M⁻¹ | 66000 M⁻¹ | 55000 M⁻¹ | 11000 M⁻¹ | 52000 M⁻¹ | 65000 M⁻¹ | 56000 M⁻¹ | 47000 M⁻¹ | 38000 M⁻¹ | <1000 M⁻¹ | 52000 M⁻¹ | <1000 M⁻¹ | <1000 M⁻¹ | 65000 M⁻¹ | <1000 M⁻¹ | <1000 M⁻¹ | <1000 M⁻¹ | <1000 M⁻¹ | association constant Ka ([1]; Sugar chain No. 407): 45000 M⁻¹; association constant Ka ([1]; Sugar chain No. 413): 32000 M⁻¹; association constant Ka ([1]; Sugar chain No. 601): 61000 M⁻¹; association constant Ka ([2]; Sugar chain No. 723): 35000 M⁻¹; association constant Ka ([2]; Sugar chain No. 726): <1000 M⁻¹; association constant Ka ([2]; Sugar chain No. 727): 130000 M⁻¹; association constant Ka [2, 3]: <1000 M⁻¹; association constant Ka ([2]; Sugar chain No. 729): <1000 M⁻¹; association constant Ka ([2]; Sugar chain No. 730): <1000 M⁻¹; association constant Ka ([2]; Sugar chain No. 731): <1000 M⁻¹; association constant Ka ([2]; Sugar chain No. 739): <1000 M⁻¹; association constant Ka ([2]; Sugar chain No. 909): 310000 M⁻¹; association constant Ka ([2]; Sugar chain No. 910): 90000 M⁻¹; association constant Ka ([2]; Sugar chain No. 931): <1000 M⁻¹; association constant Ka ([2]; Sugar chain No. 932): <1000 M⁻¹; association constant Ka ([2]; Sugar chain No. 933): 210000 M⁻¹ |
